Data as given in PMC5772984 (International journal for parasitology, 2017).
Like-named read-outs stand apart in the source and are kept apart here.

What was measured:
[1] = system: Cryptosporidium; details: 1–5 year old malnourished children; ref Amadi et al., 2002; cited from earlier work
[2] = system: C. parvum; details: Cryptosporidium parvum
[3] = system: Tufts University TU502 C. hominis; details: Cryptosporidium hominis, HCT-8
[4] = system: UGA1 N-luciferase expressing C. parvum; assay: Nluc expressing C. parvum in vitro growth inhibition in infected HCT-8 cells; format: cell-based; details: Cryptosporidium parvum
[5] = system: Cryptosporidium parvum; details: oral dosing; ref Hulverson et al., 2017; cited from earlier work
[6] = system: HepG2 cells; details: ref Hulverson et al., 2017; cited from earlier work
[7] = molecular target: UGA1 N-luciferase expressing C. parvum; details: read-out: EC50 in vitro against C. parvum; ref Hulverson et al., 2017; cited from earlier work
[8] = system: CRL-8155 cells; details: ref Hulverson et al., 2017; cited from earlier work

Compound | Effectiveness in children with cryptosporidiosis [1] | EC50 ([2]; HCT-8, Bunch Grass Farm C. parvum, high-content imaging) [nM] | EC50 ([2]; HCT-8, University of Arizona C. parvum) [nM] | EC50 [3] [nM] | EC50 [4] [nM] | Efficacy when orally dosed in vivo in mice [5] | In vitro cytotoxicity [6] | EC50 [7] [nM] | In vitro cytotoxicity [8]
CC(=O)Oc1ccccc1C(=O)Nc1ncc([N+](=O)[O-])s1 [Nitazoxanide, nitazoxanide] | approximately 30% | 1900 | 1680 | 2780 | 3100 |  |  |  | 
CCOc1ccc2cc(-c3nn(CC4CCNCC4)c4ncnc(N)c34)ccc2n1 [BKI 1318] |  |  |  |  |  | lacked efficacy | no toxicity | 3200 | no toxicity
